Assay results taken from patent US5484934A, “Isothiazole derivatives, a process for production thereof and uses thereof” (Nihon Nohyaku Co., Ltd., priority 1992, dated 1996).

Columns and labels:
Coriolus versicolor = test: Inhibition of hypha growth on malt extract agar, Coriolus versicolor; format: cell-based; conditions: Trametes versicolor, 28±2° C., 2 to 10 days, read-out: Controlling effect (growth inhibition rate) COV
Alternaria mali = test: Inhibition of hypha growth on malt extract agar, Alternaria mali; conditions: read-out: Controlling effect (growth inhibition rate) ALM
Protocol: (§1) Each preparation to be tested was added to malt extract agar medium to adjust the concentration to 50 ppm, and the resulting mixture was dispensed into Petri dishes. As an inoculum, a prepared mycerial tuft of each test fungus was punched out together with agar by means of a 4-mm-diameter cork borer and inoculated on medium. The incubation temperature was adjusted to 28±2° .C (or 18±2° C. in the case of Selupula lacrymas).
(§2) The diameter of mycerial tuft was measured 2 to 10 days after the inoculation, and the inhibition rate of hypha growth (the following equation) was measured.
(§3) The controlling effect was evaluated according to the following criterion.

Fusarium oxysporum = test: Inhibition of hypha growth on malt extract agar, Fusarium oxysporum; conditions: read-out: Controlling effect (growth inhibition rate) FUO
Trichoderma viride = test: Inhibition of hypha growth on malt extract agar, Trichoderma viride; conditions: read-out: Controlling effect (growth inhibition rate) TRV
Protocol: as §1, §2

Chaetomium globosum = test: Inhibition of hypha growth on malt extract agar, Chaetomium globosum; conditions: read-out: Controlling effect (growth inhibition rate) CHG
Protocol: as §1, §2, §3

[1] = test system: Cladosporium cladosporioides; test: Inhibition of hypha growth on malt extract agar, Cladosporium cladosporioides; conditions: read-out: Controlling effect (growth inhibition rate) CLC
Protocol: as §1, §2

Serpula lacrymans = test: Inhibition of hypha growth on malt extract agar, Serpula lacrymans; conditions: read-out: Controlling effect (growth inhibition rate) SEL
Rhizopus nigricans = test: Inhibition of hypha growth on malt extract agar, Rhizopus nigricans; conditions: Rhizopus stolonifer, read-out: Controlling effect (growth inhibition rate) RHS
Protocol: as §1, §2

Aspergillus niger = test: Inhibition of hypha growth on malt extract agar, Aspergillus niger; conditions: read-out: Controlling effect (growth inhibition rate) ASN
Protocol: as §1, §2, §3

Tyromyces palustris = test: Inhibition of hypha growth on malt extract agar, Tyromyces palustris; conditions: read-out: Controlling effect (growth inhibition rate) TYP
Protocol: as §1, §2

SMILES	inhibition at 50 ppm (Coriolus versicolor) [%]	inhibition at 50 ppm (Alternaria mali) [%]	inhibition at 50 ppm (Fusarium oxysporum) [%]	inhibition at 50 ppm (Trichoderma viride) [%]	inhibition at 50 ppm (Chaetomium globosum) [%]	inhibition at 50 ppm [1] [%]	inhibition at 50 ppm (Serpula lacrymans) [%]	inhibition at 50 ppm (Rhizopus nigricans) [%]	inhibition at 50 ppm (Aspergillus niger) [%]	inhibition at 50 ppm (Tyromyces palustris) [%]
CCCOc1nsc(S(C)(=O)=O)c1C#N [Compound 43]	100	85 to 99	85 to 99	85 to 99	85 to 99	100	100	100	85 to 99	100
COc1ccc(S(=O)(=O)c2snc(OC)c2C#N)cc1 [Compound 94]	100	100	100	100	100	100	100	100	100	100
N#Cc1c(OC(F)F)nsc1S(=O)(=O)C1CCCC1 [Compound 30, 3-difluoromethoxy-4-cyano-5-cyclopentylsulfonylisothiazole]	100	85 to 99	85 to 99	100	100	85 to 99	85 to 99	100	85 to 99	100
CCC(C)S(=O)(=O)c1snc(OC(F)F)c1C#N (centres unmarked) [Compound 28, 3-difluoromethoxy-4-cyano-5-s-butylsulfonylisothiazole]	100	100	100	100	85 to 99	85 to 99	100	100	85 to 99	100
COc1nsc(S(=O)(=O)c2c(C)cc(C)cc2C)c1C#N [Compound 97]	100	100	100	100	100	85 to 99	100	100	85 to 99	100
CCOCCOc1nsc(S(C)(=O)=O)c1C#N [Compound 73]	100	85 to 99	100	85 to 99	100	85 to 99	100	100	85 to 99	100
C=C(C)COc1nsc([S+](C)[O-])c1C#N (centres unmarked) [Compound 17]	85 to 99	100	100	100	100	100	100	100	100	100
CCOc1nsc(S(=O)(=O)c2ccc(Cl)cc2)c1C#N [Compound 100]	100	100	100	100	100	100	100	100	100	100
COc1nsc(S(=O)(=O)c2ccc(F)cc2)c1C#N [Compound 96]	100	100	100	100	100	100	100	100	100	100
N#Cc1c(OC(F)F)nsc1S(=O)(=O)c1ccc(Cl)cc1 [Compound 111]	85 to 99	100	85 to 99	100	100	100	85 to 99	100	100	100
Cc1ccc(Cl)cc1S(=O)(=O)c1snc(OC(F)F)c1C#N [Compound 113]	100	100	100	100	100	100	100	100	100	100
